Source: patent publication US5760036A, “Aminediol protease inhibitors” (E. R. Squibb & Sons, Inc., priority 1995, dated 1998)
Read-outs that look alike come from different tables or passages of the source.

Assays:
[1] = tested on: RF strain of HIV (CEM-SS cells); assay: Cell Culture Anti-HIV Activity (cell viability, formazan); format: cell-based; conditions: CEM-SS cells, RF strain of HIV, multiplicity of infection 0.04, 6 days at 37° C., 450 nm, read-out: HIV (CEM Cells) IC50
How it was run: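 Half-log compound dilutions added to CEM-SS cells (5000/well) carrying HIV RF (MOI 0.04), 6 days, 37° C. Cell protection measured as formazan from tetrazolium, A450. IC50: drug level restoring infected-cell formazan to 50% of the uninfected untreated control.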

HIV protease = target: T1, HIV protease (Human immunodeficiency virus type 1 group M subtype B, UniProt P04585); assay: HIV Protease Assay; format: biochemical; conditions: 4% DMSO, 450 μM substrate, pH 5.5, 30 minutes at 37° C., RP-HPLC; for inhibition at 10 µM: pH 5.5, 10 μM inhibitor, read-out: HIV Protease % Inhibition at 10 μM
T1 construct: and purified protease
How it was run: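 At a single final concentration of 10 μM (4% DMSO), inhibitors were added to a 30-minute, 37° C reaction of purified enzyme with 450 μM H2N-Val-Ser-Gln-Asn-(β-naphthyl-alanine)-Pro-Val-Ile-OH at pH 5.5 (sodium acetate, BSA). Hydrolysis was quantified by reverse-phase HPLC with 220 nm detection after acid quench.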

[2] = Human immunodeficiency virus 1, CEM-SS, 144 h

inhibition at 10 µM (HIV protease)	HIV Protease % Inhibition at 10 μM (HIV protease; 10 μM inhibitor)	SMILES	IC50 [1, 2]	IC50 [1]
99%		CNC(=O)C(C(=O)N[C@@H](Cc1ccccc1)[C@H](O)CNC[C@@H](O)[C@H](Cc1ccccc1)NC(=O)OC(C)(C)C)C(C)(C)C (stereo partly drawn) [Compound 354, [1S-[1R*,2S*(2S*,3R*)]]-[3-[[3-[[3,3-Dimethyl-2-[(methylamino)carbonyl]-1-oxobutyl]amino]-2-hydroxy-4-phenylbutyl]amino]-2-hydroxy-1-(phenylmethyl)propyl]carbamic acid, 1,1-dimethylethyl ester]	120 nM	
100%		CC(C)(C)OC(=O)N[C@@H](Cc1ccccc1)[C@H](O)CNC[C@@H](O)[C@H](Cc1ccccc1)NC(=O)C(NC(=O)OCc1ccccc1)C(C)(C)CO (single isomer, unassigned; isomer a) [Compound 308, [1S-[1R*,2S*(2S*,3R*)]]-1-[[[3-[[(1,1-Dimethylethoxy)carbonyl]amino]-2-hydroxy-4-phenylbutyl]amino]-2-hydroxy-1-(phenylmethyl)propyl]amino]carbonyl-2-(hydroxymethyl)-2-methylpropyl] carbamic acid, phenylmethyl ester, isomer A]		20 nM
100%		CC(C)(C)OC(=O)N[C@@H](Cc1ccccc1)[C@H](O)CNC[C@@H](O)[C@H](Cc1ccccc1)NC(=O)OC1CCOC1 (stereo partly drawn) [Compound 310, [1S-(1R*,2S*)]l-[Iminobis[2-hydroxy-1-(phenylmethyl)3,1-propanediyl]]bis[carbamic acid], 3-tetrahydrofuranyl 1,1-dimethylethyl ester]	180 nM	
93%		CC(C)(C)OC(=O)N[C@@H](Cc1ccccc1)[C@H](O)CNC[C@@H](O)[C@H](Cc1ccccc1)NC(=O)OC1COC1 [Compound 319]	1370 nM	
98%		CC(C)(C)OC(=O)N[C@@H](Cc1ccccc1)[C@H](O)CNC[C@@H](O)[C@H](Cc1ccccc1)NC(=O)OC1(CO)CCC1 [Compound 303, [1S-(1R*,2S*)]-[Iminobis[2-hydroxy-1-(phenylmethyl)-3,1-propanediyl]]bis[[carbamic acid], 1-(hydroxymethyl)cyclobutyl 1,1-dimethylethyl ester]	70 nM	
92%		CC(C)(C)OC(=O)N[C@@H](Cc1ccccc1)[C@H](O)CNC[C@@H](O)[C@H](Cc1ccccc1)NC(=O)C1(O)CCOC1 (stereo partly drawn) [Compound 330, [1S-[1R*,2S*(2S*,3R*)]]-[2-hydroxy-3-[[2-hydroxy-3-[[(tetrahydro-3-hydroxy-3-furanyl)carbonyl]amino]-4-phenylbutyl]amino]-1-(phenylmethyl)propyl]carbamic acid, 1,1-dimethylethyl ester]	850 nM	
	95%	CC(C)(C)OC(=O)N[C@@H](Cc1ccccc1)[C@H](O)CNC[C@@H](O)[C@H](Cc1ccccc1)NC(=O)C(CCO)C(C)(C)C (single isomer, unassigned; isomer a) [Compound 312, [1S-[1R*, 2S* (2S*, 3R*)]]-[3-[[3-[[2-(1,1-Dimethylethyl)-4-hydroxy-1-oxobutyl]amino]-2-hydroxy-4-phenylbutyl]amino]-2-hydroxy-1-(phenylmethyl)propyl]carbamic acid, 1,1-dimethylethyl ester, isomer A]	3500 nM	
99%		CC(C)(C)OC(=O)N[C@@H](Cc1ccccc1)[C@H](O)CNC[C@@H](O)[C@H](Cc1ccccc1)NC(=O)[C@@H](NC(=O)OCCOc1ccccc1)C(C)(C)C [Compound 326, [S-[1R*,2S*(2S*,3R*)]]-[2,2-Dimethyl-1-[[[3-[[3-[[(1,1-dimethylethoxy)carbonyl]amino]-2-hydroxy-4-phenylbutyl]amino]-2-hydroxy-1-(phenylmethyl)propyl]amino]carbonyl]propyl]carbamic acid, (2-(phenyloxy)ethyl ester]	30 nM	

Continued, compound first:

SMILES	inhibition at 10 µM (HIV protease)	HIV Protease % Inhibition at 10 μM (HIV protease; 10 μM inhibitor)	IC50 [1, 2]	IC50 [1]
CC(C)[C@H](NC(=O)OCc1ccc(-c2ccccc2)cc1)C(=O)N[C@@H](Cc1ccccc1)[C@H](O)CNC[C@@H](O)[C@H](Cc1ccccc1)NC(=O)OC(C)(C)C [Compound 68, [S-[1R*,2S*(2S*,3R*)]]-N^2-[([1,1-Biphenyl]-4-ylmethoxy]carbonyl-N-[3-[[3-[[(1,1-dimethylethoxy)carbonyl]amino]-2-hydroxy-4-phenylbutyl]amino]-2-hydroxy-l-(phenylmethyl)[propyl]-L-valinamide]	99%		110 nM	
CC(C)(C)OC(=O)N[C@@H](Cc1ccccc1)[C@H](O)CNC[C@@H](O)[C@H](CC1CCCCC1)NC(=O)OC(C)(C)C [Compound 15, [1S-[1R*,2S*(2S*,3R*)]]-[3-[[4-Cyclohexyl-3-[[(1,1-dimethylethoxy)carbonyl]-amino]-2-hydroxybutyl]amino-2-hydroxy-1-(phenylmethyl)propyl]carbamic acid, 1,1-dimethylethyl ester]	98%		380 nM	
CC(C)[C@H](NC(=O)OCc1nc2ccccc2o1)C(=O)N[C@@H](Cc1ccccc1)[C@H](O)CNC[C@@H](O)[C@H](Cc1ccccc1)NC(=O)OC(C)(C)C (relative stereo) [Compound 171, S-[1R*,2S*(2S*,3R*)]-N^2-[[(2-Benzo-xazolyl)methoxy]carbonyl]-N-[3-[[3-[[(1,1-dimethylethoxy)carbonyl]amino]-2-hydroxy-4-phenylbutyl]amino]-2-hydroxy-1-(phenylmethyl)-propyl]-L-valinamide]	99%		50 nM	
CC(C)(C)OC(=O)N[C@@H](Cc1ccccc1)[C@@H](O)CNC[C@H](O)[C@H](Cc1ccccc1)NC(=O)OC(C)(C)C [Compound 3, [1S-[1R*,2R*(2R*,3R*)]]-[3-[[3-[[(1,1-Dimethylethoxy)carbonyl]amino]-2-hydroxy-4-phenylbutyl]amino]-2-hydroxy-1-(phenylmethyl)propyl]carbamic acid, 1,1-dimethylethyl ester]	0%		> 3200 nM	
CC(C)[C@H](NC(=O)CNC(=O)OC(C)(C)C)C(=O)N[C@@H](Cc1ccccc1)[C@H](O)CNC[C@@H](O)[C@H](Cc1ccccc1)NC(=O)[C@@H](NC(=O)CNC(=O)OC(C)(C)C)C(C)C [Compound 99, [S-(1R*,2S*)]-N,N'-[Iminobis[2-hydroxy-1-(phenylmethyl)-3,1-propanediyl]]bis [N^2-[[[1,1-dimethylethoxy)carbonyl]-amino]acetyl]-L-valinamide]]	99%		> 100000 nM	
CC(C)(C)OC(=O)N[C@@H](Cc1ccccc1)[C@H](O)CNC[C@@H](O)[C@H](Cc1ccccc1)NC(=O)OC(C)(C)c1ccccc1 [Compound 156, [1S-(1R*,2S*)]-2-hydroxy-1-(phenylmethyl)-3,1-propanediyl)biscarbamic acid, 1,1-dimethylethyl-1-methyl-1-phenylethyl ester]	85%		> 6000 nM	
CC(C)[C@@H](C(=O)N[C@@H](Cc1ccccc1)[C@H](O)CNC[C@@H](O)[C@H](Cc1ccccc1)NC(=O)OC(C)(C)C)N(C)C(=O)OCc1ccccc1 [Compound 66, [S-[1R*,2S*(2S*,3R*)]]-N-[3-[[3-[(1,1-Dimethylethoxy)carbonyl)amino]-2-hydroxy-4-[phenylbutyl]amino]-2-hydroxy-1-(phenylmethyl)propyl]-N^2-methyl-N^2 [(phenylmethoxy)-carbonyl]-L-valinamide]	99%		270 nM	
